Experimental findings from patent US9499550B2 (BRISTOL-MYERS SQUIBB COMPANY, priority 2012, dated 2016) are described below.

Molecules are shown by their SMILES. Read-outs that look alike come from different tables or passages of the source.

Assay [1] concerns HCV genotype 1a (H77 strain) replicon in HUH-7 cells. Briefly: HCV replicon luciferase reporter assay, genotype 1a. In kind it is cell-based. To be noted: Hepatitis C virus, Huh-7, 72 h, 3 days incubation. In a few lines:
(§1)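 Replicon inhibition for both genotypes was measured as Renilla luciferase signal (EnduRen, 7.5 μM final, 2 h) after 3-day, 37° C exposure of replicon-bearing HUH-7 cells in 4% FCS DMEM, 0.5% DMSO. The 1b construct carries S1179I; the 1a H77 construct carries P1496L and S2204I. Twenty-point, 3-fold dilutions were fitted four-parametrically for EC50, and CC50 was taken from multiplexed Cell Titer-Blue.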
(In general: In antiviral work, replicon cells carry a viral genome segment that copies itself.)

In assay [2] the test system is HCV genotype 1b (Con1) replicon in HUH-7 cells. Briefly: HCV replicon luciferase reporter assay, genotype 1b. In kind it is cell-based. To be noted: Hepatitis C virus, Huh-7, 72 h, 3 days incubation. In a few lines: as §1
The mark [3] stands for this setting: HCV genotype 1a replicon luciferase assay, range class, read-out: LE_1a (EC50, range).
[4] abbreviates: HCV genotype 1b replicon luciferase assay, range class, read-out: LE_1b (EC50, range).
Setting [5] is: GETYPE1A, HCV genotype 1a replicon luciferase assay, range class, read-out: LE_1a (EC50, range).
[6] abbreviates: GETYPE1B, HCV genotype 1b replicon luciferase assay, range class, read-out: LE_1b (EC50, range).
[7] abbreviates: GETYPE1A, HCV genotype 1a replicon luciferase, read-out: LE_1a (EC50, range).
[8] abbreviates: GETYPE1B, HCV genotype 1b replicon luciferase, read-out: LE_1b (EC50, range).

As a reminder, the EC50 is the concentration at which the effect is half-maximal. For the compound `COc1ccc2c(O[C@@H]3C[C@H]4C(=O)N[C@]5(C(=O)NS(=O)(=O)C6(CF)CC6)C[C@H]5/C=C\CC[C@H](C)C[C@@H](C)[C@H](NC(=O)OC(C)(C)C(F)(F)F)C(=O)N4C3)ncc(C(F)(F)F)c2c1` [Compound 1174, 1,1,1-trifluoro-2-methylpropan-2-yl((2R,6S,7R,9S,13aS,14aR,16aS,Z)-14a-(((1-(fluoromethyl)cyclopropyl)sulfonyl)carbamoyl)-2-((6-methoxy-4-(trifluoromethyl)isoquinolin-1-yl)oxy)-7,9-dimethyl-5,16-dioxo-1,2,3,5,6,7,8,9,10,11,13a,14,14a,15,16,16a-hexadecahydrocyclopropa[e]pyrrolo[1,2-a][1,4]diazacyclopentadecin-6-yl)carbamate], the EC50 in assay [1] (setting [3]) and in assay [2] (setting [4]) was 4.82 to 103 nM in each case.
For the compound `COc1ccc2c(O[C@@H]3C[C@H]4C(=O)N[C@]5(C(=O)NS(=O)(=O)C6(CF)CC6)C[C@H]5/C=C\CC[C@@H](C)C[C@@H](C)[C@H](NC(=O)OC(C)(C)C(F)(F)F)C(=O)N4C3)ncc(C(F)(F)F)c2c1` [Compound 1175, 1,1,1-trifluoro-2-methylpropan-2-yl((2R,6S,7R,9R,13aS,14aR,16aS,Z)-14a-(((1-(fluoromethyl)cyclopropyl)sulfonyl)carbamoyl)-2-((6-methoxy-4-(trifluoromethyl)isoquinolin-1-yl)oxy)-7,9-dimethyl-5,16-dioxo-1,2,3,5,6,7,8,9,10,11,13a,14,14a,15,16,16a-hexadecahydrocyclopropa[e]pyrrolo[1,2-a][1,4]diazacyclopentadecin-6-yl)carbamate], the half-maximal effective concentration (EC50) in assay [1] (setting [3]) and in assay [2] (setting [4]) was less than 5.46 nM in each case.
As to `COc1ccc2c(O[C@@H]3C[C@H]4C(=O)N[C@]5(C(=O)NS(=O)(=O)C6(CF)CC6)C[C@H]5/C=C\CC[C@H](C)C[C@@H](C)[C@H](NC(=O)OC5(C(F)(F)F)CCCOC5)C(=O)N4C3)ncc(C(F)(F)F)c2c1` (stereo partly drawn) [Compound 1176, 3-(trifluoromethyl)tetrahydro-2H-pyran-3-yl((2R,6S,7R,9S,13aS,14aR,16aS,Z)-14a-(((1-(fluoromethyl)cyclopropyl)sulfonyl)carbamoyl)-2-((6-methoxy-4-(trifluoromethyl)isoquinolin-1-yl)oxy)-7,9-dimethyl-5,16-dioxo-1,2,3,5,6,7,8,9,10,11,13a,14,14a,15,16,16a-hexadecahydrocyclopropa[e]pyrrolo[1,2-a][1,4]diazacyclopentadecin-6-yl)carbamate], the 50% effective concentration (EC50) in assay [1] (setting [3]) and in assay [2] (setting [4]) was 4.82 to 103 nM throughout.
Consider `COc1ccc2c(O[C@@H]3C[C@H]4C(=O)N[C@]5(C(=O)NS(=O)(=O)C6(CF)CC6)C[C@H]5/C=C\CC[C@@H](C)C[C@@H](C)[C@H](NC(=O)OC5(C(F)(F)F)CCCOC5)C(=O)N4C3)ncc(C(F)(F)F)c2c1` (stereo partly drawn) [Compound 1177, 3-(trifluoromethyl)tetrahydro-2H-pyran-3-yl((2R,6S,7R,9R,13aS,14aR,16aS,Z)-14a-(((1-(fluoromethyl)cyclopropyl)sulfonyl)carbamoyl)-2-((6-methoxy-4-(trifluoromethyl)isoquinolin-1-yl)oxy)-7,9-dimethyl-5,16-dioxo-1,2,3,5,6,7,8,9,10,11,13a,14,14a,15,16,16a-hexadecahydrocyclopropa[e]pyrrolo[1,2-a][1,4]diazacyclopentadecin-6-yl)carbamate], for which the half-maximal effective concentration (EC50) in assay [1] (setting [3]) and in assay [2] (setting [4]) was less than 5.46 nM each time.
With `CC[C@@H]1C[C@@H](C)CC/C=C\[C@@H]2C[C@@]2(C(=O)NS(=O)(=O)C2(C)CC2)NC(=O)[C@@H]2C[C@@H](Oc3nc(OC)cc4cc(OC)ccc34)CN2C(=O)[C@H]1NC(=O)OC1(C(F)(F)F)CCCOC1` (stereo partly drawn) [Compound 1178, 3-(trifluoromethyl)tetrahydro-2H-pyran-3-yl((2R,6S,7R,9S,13aS,14aR,16aS,Z)-2-((3,6-dimethoxyisoquinolin-1-yl)oxy)-7-ethyl-9-methyl-14a-(((1-methylcyclopropyl)sulfonyl)carbamoyl)-5,16-dioxo-1,2,3,5,6,7,8,9,10,11,13a,14,14a,15,16,16a-hexadecahydrocyclopropa[e]pyrrolo[1,2-a][1,4]diazacyclopentadecin-6-yl)carbamate], the concentration giving a half-maximal response (EC50) in assay [1] (setting [3]) and in assay [2] (setting [4]) was less than 5.46 nM throughout.
For the compound `COc1ccc2c(O[C@@H]3C[C@H]4C(=O)N[C@]5(C(=O)NS(=O)(=O)C6(C(F)F)CC6)C[C@H]5/C=C\CC[C@@H](C)C[C@@H](C)[C@H](NC(=O)OC(C)(C)C)C(=O)N4C3)nc(OC)cc2c1` [Compound 1180, tert-butyl ((2R,6S,7R,9R,13aS,14aR,16aS,Z)-14a-(((1-(difluoromethyl)cyclopropyl)sulfonyl)carbamoyl)-2-((3,6-dimethoxyisoquinolin-1-yl)oxy)-7,9-dimethyl-5,16-dioxo-1,2,3,5,6,7,8,9,10,11,13a,14,14a,15,16,16a-hexadecahydrocyclopropa[e]pyrrolo[1,2-a][1,4]diazacyclopentadecin-6-yl)carbamate], the EC50 in assay [1] (setting [3]) and in assay [2] (setting [4]) was less than 5.46 nM throughout.
In the case of `COc1ccc2c(O[C@@H]3C[C@H]4C(=O)N[C@]5(C(=O)NS(=O)(=O)C6(C(F)F)CC6)C[C@H]5/C=C\CC[C@@H](C)C[C@@H](C)[C@H](NC(=O)OC(C)(C)C(F)(F)F)C(=O)N4C3)nc(OC)cc2c1` [Compound 1181], the EC50 in assay [1] (setting [5]) and in assay [2] (setting [6]) was less than 5.46 nM throughout.
Consider `COc1ccc2c(O[C@@H]3C[C@H]4C(=O)N[C@]5(C(=O)NS(=O)(=O)C6(C(F)F)CC6)C[C@H]5/C=C\CC[C@@H](C)C[C@@H](C)[C@H](NC(=O)OC(C)(C)C(C)(F)F)C(=O)N4C3)nc(OC)cc2c1` [Compound 1182], for which the EC50 in assay [1] (setting [5]) and in assay [2] (setting [6]) was less than 5.46 nM throughout.
For the compound `COc1ccc2c(O[C@@H]3C[C@H]4C(=O)N[C@]5(C(=O)NS(=O)(=O)C6(CF)CC6)C[C@H]5/C=C\CC[C@@H](C)C[C@@H](C)[C@H](NC(=O)O[C@@]5(C(F)(F)F)CCCOC5)C(=O)N4C3)nc(-c3ccc(OC(C)C)cc3)cc2c1` [Compound 1183], the half-maximal effective concentration (EC50) in assay [1] (setting [7]) and in assay [2] (setting [8]) was 1.01 to 5 nM each time.
As for `COc1ccc2c(O[C@@H]3C[C@H]4C(=O)N[C@]5(C(=O)NS(=O)(=O)C6(CF)CC6)C[C@H]5/C=C\CC[C@@H](C)C[C@@H](C)[C@H](NC(=O)O[C@]5(C(F)(F)F)CCCOC5)C(=O)N4C3)nc(-c3ccc(OC(C)C)cc3)cc2c1` [Compound 1184], the EC50 in assay [1] (setting [7]) and in assay [2] (setting [8]) was 1.01 to 5 nM in each case.
Regarding `COc1cc2ccnc(O[C@@H]3C[C@H]4C(=O)N[C@]5(C(=O)NS(=O)(=O)C6(CF)CC6)C[C@H]5/C=C\CC[C@@H](C)C[C@@H](C)[C@H](NC(=O)OC(C)(C)C(F)(F)F)C(=O)N4C3)c2cc1F` [Compound 1185], the EC50 in assay [1] (GETYPE1A, HCV genotype 1a replicon luciferase, read-out: LE_1a (EC50)) was 2.91 nM; in assay [1] (setting [7]) it was 1.01 to 5 nM; in assay [2] (GETYPE1B, HCV genotype 1b replicon luciferase, read-out: LE_1b (EC50)), 0.83 nM; in assay [2] (setting [8]) it was 0.51 to 1 nM.
In the case of `COc1cc2ccnc(O[C@@H]3C[C@H]4C(=O)N[C@]5(C(=O)NS(=O)(=O)C6(CF)CC6)C[C@H]5/C=C\CC[C@H](C)C[C@@H](C)[C@H](NC(=O)OC(C)(C)C(F)(F)F)C(=O)N4C3)c2cc1F` [Compound 1186], the concentration giving a half-maximal response (EC50) in assay [1] (setting [7]) lay in the range of 5.01 to 35 nM; in assay [2] (setting [8]), 1.01 to 5 nM.
Take `CC[C@@H]1C[C@H](C)CC/C=C\[C@@H]2C[C@@]2(C(=O)NS(=O)(=O)C2(C)CC2)NC(=O)[C@@H]2C[C@@H](Oc3nc(OC)cc4cc(OC)c(F)cc34)CN2C(=O)[C@H]1NC(=O)OC(C)(C)C(F)(F)F` [Compound 1187]: the half-maximal effective concentration (EC50) fell in the range of 5.01 to 35 nM in assay [1] (setting [7]) and 1.01 to 5 nM in assay [2] (setting [8]).
